Several values for one entry are separate records, joined by “and”; a condition that tells them apart may be missing. Equal values may be shown once.
Experiments:
[1] = tested on: narcolepsy with cataplexy; experiment: Number of cataplexy attacks in a patient with narcolepsy with cataplexy; format: in vivo, human; details: single patient, 5 mg at 8 am and 5 mg at 1 pm each day
Description: A person is diagnosed as suffering from narcolepsy with cataplexy. They are given mazindol and instructed to take 5 mg of mazindol at 8 am and 5 mg of mazindol at 1 pm each day for three weeks. The patient is evaluated prior to treatment, and weekly to determine the MWT score, the number of cataplexy attacks, the PGI-C score, the HAM-D score, the ESS score, the NSAQ score, and the ability to concentrate on the NSAQ. After one week of treatment, the number of cataplexy attacks have decreased by 10-30%.
A person is diagnosed as suffering from narcolepsy with cataplexy. They are given mazindol and instructed to take 5 mg of mazindol at 8 am and 5 mg of mazindol at 1 pm each day for three weeks. The patient is evaluated prior to treatment, and weekly to determine the MWT score, the number of cataplexy attacks, the PGI-C score, the HAM-D score, the ESS score, the NSAQ score, and the ability to concentrate on the NSAQ. After one week of treatment, the number of cataplexy attacks have decreased by 30-60%.
A person is diagnosed as suffering from narcolepsy with cataplexy. […]
(§1) A person is diagnosed as suffering from narcolepsy with cataplexy. […] The patient is evaluated prior to treatment, and weekly to determine the MWT score, the number of cataplexy attacks, the PGI-C score, the HAM-D score, the ESS score, the NSAQ score, and the ability to concentrate on the NSAQ. […]

[2] = tested on: narcolepsy with cataplexy; experiment: Epworth Sleepiness Scale (ESS) score in a patient with narcolepsy with cataplexy; format: in vivo, human; details: single patient, 5 mg at 8 am and 5 mg at 1 pm each day
Description: A person is diagnosed as suffering from narcolepsy with cataplexy. They are given mazindol and instructed to take 5 mg of mazindol at 8 am and 5 mg of mazindol at 1 pm each day for three weeks. The patient is evaluated prior to treatment, and weekly to determine the MWT score, the number of cataplexy attacks, the PGI-C score, the HAM-D score, the ESS score, the NSAQ score, and the ability to concentrate on the NSAQ. After one week of treatment, the ESS score has decreased by 10-30%.
A person is diagnosed as suffering from narcolepsy with cataplexy. They are given mazindol and instructed to take 5 mg of mazindol at 8 am and 5 mg of mazindol at 1 pm each day for three weeks. The patient is evaluated prior to treatment, and weekly to determine the MWT score, the number of cataplexy attacks, the PGI-C score, the HAM-D score, the ESS score, the NSAQ score, and the ability to concentrate on the NSAQ. After one week of treatment, the ESS score has decreased by 30-60%.
A person is diagnosed as suffering from narcolepsy with cataplexy. They are given mazindol and instructed to take 5 mg of mazindol at 8 am and 5 mg of mazindol at 1 pm each day for three weeks. The patient is evaluated prior to treatment, and weekly to determine the MWT score, the number of cataplexy attacks, the PGI-C score, the HAM-D score, the ESS score, the NSAQ score, and the ability to concentrate on the NSAQ. […]

[3] = tested on: narcolepsy with cataplexy; experiment: Maintenance of Wakefulness Test (MWT) score in a patient with narcolepsy with cataplexy; format: in vivo, human; details: single patient, 5 mg at 8 am and 5 mg at 1 pm each day
Description: A person is diagnosed as suffering from narcolepsy with cataplexy. They are given mazindol and instructed to take 5 mg of mazindol at 8 am and 5 mg of mazindol at 1 pm […] After one week of treatment, the MWT score has increased by 10-30%.
A person is diagnosed as suffering from narcolepsy with cataplexy. They are given mazindol and instructed to take 5 mg of mazindol at 8 am and 5 mg of mazindol at 1 pm each day for three weeks. The patient is evaluated prior to treatment, and weekly to determine the MWT score, the number of cataplexy attacks, the PGI-C score, the HAM-D score, the ESS score, the NSAQ score, and the ability to concentrate on the NSAQ. After one week of treatment, the MWT score has increased by 30-60%.
as §1, §1

[4] = tested on: narcolepsy with cataplexy; experiment: Hamilton Depression Rating Scale (HAM-D) score in a patient with narcolepsy with cataplexy; format: in vivo, human; details: single patient; 5 mg at 8 am and 5 mg at 1 pm each day; after three weeks of treatment
Description: A person is diagnosed as suffering from narcolepsy with cataplexy. They are given mazindol and instructed to take 5 mg of mazindol at 8 am and 5 mg of mazindol at 1 pm […] After three weeks of treatment, the HAM-D score has decreased by 10-30%.
A person is diagnosed as suffering from narcolepsy with cataplexy. They are given mazindol and instructed to take 5 mg of mazindol at 8 am and 5 mg of mazindol at 1 pm each day for three weeks. The patient is evaluated prior to treatment, and weekly to determine the MWT score, the number of cataplexy attacks, the PGI-C score, the HAM-D score, the ESS score, the NSAQ score, and the ability to concentrate on the NSAQ. After three weeks of treatment, the HAM-D score has decreased by 30-60%.
A person is diagnosed as suffering from narcolepsy with cataplexy. They are given mazindol and instructed to take 5 mg of mazindol at 8 am and 5 mg of mazindol at 1 pm each day for three weeks. The patient is evaluated prior to treatment, and weekly to determine the MWT score, the number of cataplexy attacks, the PGI-C score, the HAM-D score, the ESS score, the NSAQ score, and the ability to concentrate on the NSAQ. After three weeks of treatment, the HAM-D score has decreased by 60-100%.

[5] = human patients; without controlled release coating; cited from earlier work

OC1(c2ccc(Cl)cc2)c2ccccc2C2=NCCN21 (centres unmarked) [mazindol]
decrease in the number of cataplexy attacks ([1]; after one week of treatment): 10-30% and 30-60% and 60-100% | decrease in the number of cataplexy attacks ([1]; after three weeks of treatment): 10-30% and 30-60% and 60-100% | decrease in ESS score ([2]; after one week of treatment): 10-30% and 30-60% and 60-100% | decrease in ESS score ([2]; after three weeks of treatment): 10-30% and 30-60% and 60-100% | increase in MWT score ([3]; after one week of treatment): 10-30% and 30-60% and 60-100% | increase in MWT score ([3]; after three weeks of treatment): 10-30% and 30-60% and 60-100% | decrease in HAM-D score [4]: 10-30% and 30-60% and 60-100% | time to reach a maximum plasma concentration [5]: 2 to 4 h

Reference: US20250360107A1, “USE OF MAZINDOL TO TREAT NERVOUS SYSTEM DISORDERS” (AXSOME THERAPEUTICS, INC., priority 2022, published 2025)
